One may read the EC90 as the point of the concentration-response curve where the effect stands at 90%.

Drawing on ChEMBL document CHEMBL3045371, “Structure-Activity Relationships of the Azole Fungicide Metconazole and Its Related Azolylmethylcycloalkanols” (1999), this text covers EC90 for twelve molecules.

Values after ≈ are worked out from the molar mass of the structure shown.

In the test the test system is Fusarium fujikuroi. Nature of the test: Fungicidal activity against Fusarium fujikuroi assessed as inhibition of mycelial growth incubated for 3 days at 28 degC. The format is functional. The note with it: 72 h.

For `CC1(C)CC[C@@H](Cc2ccc(Cl)cc2)[C@@]1(O)Cn1cncn1`, the 90% effect concentration (EC90) was 2 µg/mL (≈ 6.25 µM).

Consider `CC1(C)CCCC[C@@H](Cc2ccc(Cl)cc2)[C@@]1(O)Cn1cncn1`, for which the EC90 is 4 µg/mL (≈ 11.5 µM).

On to `O[C@]1(Cn2cncn2)CCC[C@@H]1Cc1ccc(Cl)cc1` (relative stereo), for which the 90% effect concentration (EC90) came out at 2.1 µg/mL (≈ 7.2 µM).

With `O[C@]1(Cn2cncn2)CCC[C@H]1Cc1ccc(Cl)cc1` (relative stereo), the EC90 came out at 152 µg/mL (≈ 521 µM).

`O[C@]1(Cn2cncn2)CCCC[C@@H]1Cc1ccc(Cl)cc1` (relative stereo): the EC90 was > 400 µg/mL.

Take `O[C@]1(Cn2cncn2)CCCC[C@H]1Cc1ccc(Cl)cc1` (relative stereo): the 90% effect concentration (EC90) stood at 64.3 µg/mL (≈ 210 µM).

For the molecule `O[C@]1(Cn2cncn2)CCCCC[C@@H]1Cc1ccc(Cl)cc1` (relative stereo), the EC90 stood at 2.2 µg/mL (≈ 6.88 µM).

For the molecule `O[C@]1(Cn2cncn2)CCCCC[C@H]1Cc1ccc(Cl)cc1` (relative stereo), the EC90 is > 400 µg/mL.

For the molecule `CC1(C)CC[C@H](Cc2ccc(Cl)cc2)[C@@]1(O)Cn1cncn1` (relative stereo), the EC90 was found to be 0.2 µg/mL (≈ 0.625 µM).

Turning to `CC1(C)CCC[C@H](Cc2ccc(Cl)cc2)[C@@]1(O)Cn1cncn1` (relative stereo), the EC90 was 15 µg/mL (≈ 44.9 µM).

With `CC1(C)CCC[C@@H](Cc2ccc(Cl)cc2)[C@@]1(O)Cn1cncn1` (relative stereo), the 90% effect concentration (EC90) was determined as 4.4 µg/mL (≈ 13.2 µM).

`CC1(C)CCCC[C@H](Cc2ccc(Cl)cc2)[C@@]1(O)Cn1cncn1` (relative stereo): the EC90 amounted to 1.3 µg/mL (≈ 3.74 µM).
